Test results published in article PMC8448819, “The Arabidopsis MIK2 receptor elicits immunity by sensing a conserved signature from phytocytokines and microbes” (Nature Communications, 2021).

Experiments:
[1] = test system: mik2-like, rlk7, pepr1,2, hae/hsl2 and fls2 mutant seedlings; assay: Root growth assay, other receptor kinase mutants; assay type: in vivo, Arabidopsis thaliana; settings: Supplementary Fig. 4c
Source text: The Arabidopsis thaliana accession Columbia-0 (Col-0) was used as wild type (WT). T-DNA insertion mutants of mik2-1 (SALK_061769), mik2-2 (SALK_046987), mik2-like (SALK_112341), and rlk7-3 (SALK_120595) were obtained from the Nottingham Arabidopsis Stock Centre (NASC). The fls2 (SALK_141277), bak1-4, bik1-1/pbl1-1, bak1-5/serk4-1, rbohd mutants, and the transgenic line expressing p35S::GFP have been reported previously[19],[62],[63]. The hae/hsl2 mutant was kindly provided by Dr. Reidunn B. Aalen (University of Oslo, Norway), the pepr1-2/pepr2-2 (pepr1,2) mutant by Dr. Zhi Qi (Inner Mongolia University, China), the scoop12 mutant by Dr. Sébastien Aubourg (INRA, France), a transgenic line expressing p35S::Aequorin by Dr. Marc Knight (Durham University, UK), transgenic line expressing pMYB51::GUS by Dr. Frederick M. Ausubel (Harvard Medical School, USA). […]
Cold stratified seeds were surface-sterilized with 70% (v/v) ethanol for 5 min and were sown on ½MS plates with or without peptides at indicated concentrations. Ten-day-old seedlings grown on plates vertically in a growth chamber were photographed, and the root lengths of seedlings were measured using Image J (http://rsb.info.nih.gov/ij/).

[2] = test system: Arabidopsis WT (Col-0) seedlings; assay type: in vivo, Arabidopsis thaliana
mik2 mutant seedlings = assay: ROS assay (luminol), mik2 mutants; assay type: in vivo, Arabidopsis thaliana
Description: ROS burst was determined by a luminol-based assay. […] Then, ddH2O was replaced by 200 µL of reaction solution containing 50 µM of luminol, and 10 µg/mL of horseradish peroxidase (Sigma-Aldrich) supplemented with or without 100 nM or 1 μM peptide. Luminescence was measured immediately after adding the solution with a luminometer (Glomax 20/20n, Promega) with a one-second interval for 15 min. The total values of ROS production were indicated as means of the relative light units (RLUs).

mik2-1 seedling roots = assay: Microscopy of root meristems, mik2-1; assay type: in vivo, Arabidopsis thaliana; settings: mik2-1, 1 µM, 48 h
Arabidopsis leaf disks = assay: Ethylene production; assay type: in vivo, Arabidopsis thaliana; settings: Fig. 2j, leaf disks of 4-week-old plants, peptides at 1 µM, 23 °C, 4 h, GC-FID
Description: Twelve leaves of 4-week-old plants grown on soil were excised into leaf disks of 0.25 cm^2, followed by overnight incubation in a 25 mL glass vial with 2 mL of ddH2O for recovery. Then, ddH2O was replaced by 1 mL of peptides at 1 µM, and the vials were capped immediately with a rubber stopper and incubated at 23 °C with gentle agitation for 4 h. One mL of the vial headspace was injected into a TRACE^TM 1310 Gas Chromatograph (Thermo Fisher Scientific) with FID supported by Chromeleon 7 for quantitation.

[3] = test system: Arabidopsis WT (Col-0) seedlings; settings: RLK7 activation by PIP1; cited from earlier work
Source text: (§1) Plant plasma membrane-resident RKs perceive diverse exogenous and endogenous signals via the extracellular domain and activate intracellular responses through the cytoplasmic kinase domain[1]–[3]. The chimeric receptors with the swapped extracellular and intracellular domains between different RKs have been used to study the specificity of signal perception and signaling activation[48]–[52]. The extracellular domains of RKs determine the ligand-binding specificity[50],[51],[53]. The intracellular kinase domains of different RKs also trigger specific responses. For example, the chimeric rec ...

Arabidopsis WT seedlings = settings: RLK7 activation by PIP1; cited from earlier work
Source text: as §1

[4] = test system: gene expression, WT Col-0 seedlings; assay: RNA-Seq, WT Col-0; assay type: in vivo, Arabidopsis thaliana; settings: for gene expression fold change: WT, 1 μM PIP1 vs Ctrl, 1 h
Description: (§2) Seedlings were then treated with or without 1 μM PIP1 or SCOOP12 for 1 or 6 h and harvested for RNA isolation. Total RNAs (5 μg) from two biological replicates were pooled for cDNA library construction. cDNA library preparation and sequencing were carried out on an Illumina HiSeq 4000 platform with 150-nucleotide pair-end reads in LC-BIO (Hangzhou, China). Total reads were mapped to the Arabidopsis genome (TAIR10; www.arabidopsis.org) with Hisat, and the read counts for every gene were generated with StringTie. The expression levels of genes were calculated by quantifying the cDNA fragments per kilobase of transcript per million fragments mapped (FPKM). Differentially expressed genes (DEGs) between different treatments were defined by fold change of read counts at 1 and 6 h compared to that at 0 h (differential expression analysis using edgeR, fold change ≥ 2 with p-value ≤ 0.01). DEGs were listed in Supplementary Data 2.

[5] = test system: gene expression, RLK7^ECD-MIK2^TK/rlk7 seedlings; assay: RNA-Seq, RLK7^ECD-MIK2^TK/rlk7; assay type: in vivo, Arabidopsis thaliana; settings: for gene expression fold change: RLK7ECD-MIK2TK/rlk7, 1 μM PIP1 vs Ctrl, 1 h
Description: as §2

## PNGDIFTGPSGSGHGGGR [SCOOP10B, synthesized SCOOP peptide corresponding to the SxS motif]
[1]; fls2, root growth
  response of fls2: responded to SCOOP10^B similarly to WT plants
[1]; root growth
  response of MIK2L, RLK7, PEPR1, PEPR2, HAE and HSL2 mutants: not involved in responsiveness to SCOOP10^B
[2]; 1 to 100 nM SCOOP10^B
  root growth retardation, concentration series, WT: more pronounced with the increased concentrations of SCOOP10^B from 1 to 100 nM
[2]; in vivo
  concentration at which still active: 1 nM
  root growth inhibition: inhibited root growth to various degrees, with SCOOP10^B and 13 being the most active
mik2 mutant seedlings; mik2-1, repeat 1
  ROS production, total luminescence (Fig. 3f): 113000
mik2 mutant seedlings; mik2-1, repeat 2
  ROS production, total luminescence (Fig. 3f): 107000
mik2 mutant seedlings; mik2-1, repeat 3
  ROS production, total luminescence (Fig. 3f): 114000
mik2 mutant seedlings; mik2-2, repeat 1
  ROS production, total luminescence (Fig. 3f): 119000
mik2 mutant seedlings; mik2-2, repeat 2
  ROS production, total luminescence (Fig. 3f): 155000
mik2 mutant seedlings; mik2-2, repeat 3
  ROS production, total luminescence (Fig. 3f): 128000
mik2 mutant seedlings; mik2 mutants, 100 nM SCOOPs or 1 µM FocSCOOPL
  ROS production in mik2: abolished in mik2 mutants
mik2-1 seedling roots
  root meristem distortion in mik2-1: not observed in mik2-1
Arabidopsis leaf disks; repeat 1
  ethylene production: 2.0449 ppm
Arabidopsis leaf disks; repeat 2
  ethylene production: 1.4942 ppm
Arabidopsis leaf disks; repeat 3
  ethylene production: 1.8726 ppm

## RLASGP(OH)SPRGRGH [PIP1, secreted peptide, ligand of RLK7]
[3]
  root growth: moderately inhibits root growth
Arabidopsis WT seedlings
  ROS production: weakly induces ROS production
[4]; 746 out of 1205 genes of PIP1-treated RLK7^ECD-MIK2^TK/rlk7
  overlap of MIK2 kinase domain-upregulated genes with PIP1-upregulated genes in WT: 61.9%
[4]; WT seedlings
  expression of SCOOP genes: not in WT plants
[4]; gene AT1G56242
  gene expression fold change: 13807.76
[4]; gene AT1G69920
  gene expression fold change: 473.83
[4]; gene AT3G60120
  gene expression fold change: 45141.52
[5]; RLK7^ECD-MIK2^TK/rlk7, 1 µM PIP1
  small peptide genes induced: 51 genes
[5]; RLK7^ECD-MIK2^TK/rlk7, 1 µM PIP1, 0, 1 and 6 h
  expression of SCOOP genes: induces the expression of SCOOP genes
[5]; RLK7^ECD-MIK2^TK/rlk7, 1 µM PIP1, among 51 induced small peptide genes
  SCOOP, STMP and SCOOP/STMP-like genes induced: 18 genes
[5]; gene AT1G53080
  gene expression fold change: 194.45
[5]; gene AT5G52400
  gene expression fold change: 19374.61
[5]; gene AT5G52700
  gene expression fold change: 11109.32
